Columns and labels:
FALZ = target: T1, FALZ (Homo sapiens, UniProt Q12830); assay: BROMOscan FALZ; format: binding
T1 construct: ≥2000-fold selectivity over all 20 non-BET bromodomains tested; purchased DiscoverX
Experimental: (§1) The BRD4 BD1/BD2 TR-FRET assay had been used routinely for this optimization work, and in order to better understand the BET BD1 domain selectivity profile, 31 was tested in TR-FRET BRD2, BRD3, and BRDT assays.
(§2) [52] BROMOscan recombinant protein binding assays were carried out at DiscoverX. (accessed April 4, 2023).

[1] = Artificial membrane permeability assay; settings: PAMPA
Experimental: as §1
ChromatographicLogD at pH 7.4, artificial membrane permeability, CLND solubility, and CAD solubility were measured using published protocols.[55]

Monoamine Oxidase A = target: T2, Monoamine Oxidase A (Homo sapiens, UniProt P21397); assay: Cross screening: Monoamine Oxidase A antagonist; format: biochemical
T2 construct: purchased GSK enhanced cross-screening panel (in-house)
T2 sequence (P21397 whole entry): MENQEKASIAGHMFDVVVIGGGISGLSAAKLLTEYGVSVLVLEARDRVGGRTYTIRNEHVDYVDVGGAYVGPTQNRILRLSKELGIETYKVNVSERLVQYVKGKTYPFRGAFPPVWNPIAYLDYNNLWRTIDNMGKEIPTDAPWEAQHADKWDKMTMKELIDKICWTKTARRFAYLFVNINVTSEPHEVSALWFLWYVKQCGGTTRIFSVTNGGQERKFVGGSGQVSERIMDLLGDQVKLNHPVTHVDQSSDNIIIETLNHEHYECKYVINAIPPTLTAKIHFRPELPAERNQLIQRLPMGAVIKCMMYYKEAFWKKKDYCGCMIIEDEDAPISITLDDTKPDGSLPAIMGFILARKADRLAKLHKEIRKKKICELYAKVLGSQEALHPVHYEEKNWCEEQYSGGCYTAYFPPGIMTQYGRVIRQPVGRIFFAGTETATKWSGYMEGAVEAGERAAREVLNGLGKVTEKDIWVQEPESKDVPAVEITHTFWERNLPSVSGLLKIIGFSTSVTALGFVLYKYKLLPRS

BRPF1 = target: T3, BRPF1 (Homo sapiens, UniProt P55201); assay: BROMOscan BRPF1; format: binding
T3 construct: ≥2000-fold selectivity over all 20 non-BET bromodomains tested; purchased DiscoverX
T3 sequence (P55201 628-732 limits assumed): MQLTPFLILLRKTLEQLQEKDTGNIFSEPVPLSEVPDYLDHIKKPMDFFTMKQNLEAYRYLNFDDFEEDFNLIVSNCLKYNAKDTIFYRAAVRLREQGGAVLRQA
Experimental: as §1, §2

M1 [2] = target: T4, M1 (Homo sapiens, UniProt P11229); assay: Cross screening: M1 Agonist; format: biochemical
T4 construct: purchased GSK enhanced cross-screening panel (in-house)
T4 sequence (P11229 whole entry): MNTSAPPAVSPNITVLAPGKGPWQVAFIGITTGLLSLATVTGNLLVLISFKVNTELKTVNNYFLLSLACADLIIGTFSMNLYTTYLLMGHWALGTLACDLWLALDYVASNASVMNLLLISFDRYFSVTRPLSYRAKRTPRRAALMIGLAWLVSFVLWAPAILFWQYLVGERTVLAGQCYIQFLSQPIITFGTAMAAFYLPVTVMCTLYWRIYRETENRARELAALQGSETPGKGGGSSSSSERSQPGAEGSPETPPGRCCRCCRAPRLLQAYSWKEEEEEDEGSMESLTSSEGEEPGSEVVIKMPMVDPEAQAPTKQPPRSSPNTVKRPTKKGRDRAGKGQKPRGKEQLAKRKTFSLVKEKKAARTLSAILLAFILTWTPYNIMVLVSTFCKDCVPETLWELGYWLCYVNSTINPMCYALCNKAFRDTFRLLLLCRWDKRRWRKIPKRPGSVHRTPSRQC

OPRK1 = target: T5, OPRK1 (Homo sapiens, UniProt P41145); assay: Cross screening: OPRK1 Agonist; format: biochemical
T5 construct: purchased GSK enhanced cross-screening panel (in-house)

NK1 = target: T6, NK1 (Homo sapiens, UniProt P25103); assay: Cross screening: NK1 antagonist; format: biochemical
T6 construct: purchased GSK enhanced cross-screening panel (in-house)
T6 sequence (P25103 whole entry): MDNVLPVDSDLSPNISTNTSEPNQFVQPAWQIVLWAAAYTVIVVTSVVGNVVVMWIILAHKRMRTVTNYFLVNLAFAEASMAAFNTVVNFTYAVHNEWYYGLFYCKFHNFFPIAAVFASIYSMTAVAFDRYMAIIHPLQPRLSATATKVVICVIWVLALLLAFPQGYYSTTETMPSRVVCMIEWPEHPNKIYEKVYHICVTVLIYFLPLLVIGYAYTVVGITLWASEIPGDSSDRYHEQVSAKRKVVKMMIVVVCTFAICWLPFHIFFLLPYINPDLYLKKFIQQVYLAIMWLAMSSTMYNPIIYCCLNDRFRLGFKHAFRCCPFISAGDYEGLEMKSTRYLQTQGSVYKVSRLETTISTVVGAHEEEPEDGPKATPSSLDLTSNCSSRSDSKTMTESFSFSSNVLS

BRD4 BD1 [3] = format: binding, human; settings: TR-FRET
Experimental: As a strategic decision, every compound synthesized across all of GSK’s bromodomain research projects was tested in both a BRD4 BD1 and a BRD4 BD2 TR-FRET assay as part of tier 1 data generation. […] LipE is a straightforward, yet powerful metric for medicinal chemistry teams to normalize potency relative to lipophilicity, a critical factor both for parameters of the human dose equation and also for promiscuity.[43],[44] To aid interpretation, diagonal lines representing different LipE values are shown, with the most desirable space found toward the top left-hand area of the plot representing molecules with the comparatively highest potency per unit of lipophilicity.
(§3) All TR-FRET and hWB cytokine assays have been described previously.[54]

5-HT2A = target: T7, 5-HT2A (Homo sapiens, UniProt P28223); assay: Cross screening: 5-HT2A antagonist; format: biochemical
T7 construct: purchased GSK enhanced cross-screening panel (in-house)
T7 sequence (P28223 whole entry): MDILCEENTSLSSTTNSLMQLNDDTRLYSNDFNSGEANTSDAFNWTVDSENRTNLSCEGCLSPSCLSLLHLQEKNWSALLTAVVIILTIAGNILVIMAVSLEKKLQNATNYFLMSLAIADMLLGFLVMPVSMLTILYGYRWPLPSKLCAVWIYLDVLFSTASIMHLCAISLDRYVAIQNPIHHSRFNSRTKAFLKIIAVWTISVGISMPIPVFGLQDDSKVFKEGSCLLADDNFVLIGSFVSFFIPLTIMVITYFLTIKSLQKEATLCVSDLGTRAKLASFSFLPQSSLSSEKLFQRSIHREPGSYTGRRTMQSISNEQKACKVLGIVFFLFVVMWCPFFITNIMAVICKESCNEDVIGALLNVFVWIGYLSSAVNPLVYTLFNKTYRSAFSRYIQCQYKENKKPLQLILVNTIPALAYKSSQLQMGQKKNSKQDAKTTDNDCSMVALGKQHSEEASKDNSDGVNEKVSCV

GCN5 = target: T8, GCN5 (Homo sapiens, UniProt Q92830); assay: BROMOscan GCN5; format: binding
T8 construct: ≥2000-fold selectivity over all 20 non-BET bromodomains tested; purchased DiscoverX
T8 sequence (Q92830 728-832 limits assumed): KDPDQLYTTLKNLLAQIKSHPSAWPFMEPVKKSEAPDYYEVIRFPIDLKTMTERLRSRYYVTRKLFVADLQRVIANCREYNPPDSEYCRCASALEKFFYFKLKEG
Experimental: as §1, §2

BRD2 BD1 = BRD2 BD1 (Homo sapiens, UniProt P25440); assay: BRD2 BD1 TR-FRET assay; format: binding
Sequence of BRD2 BD1 (P25440 74-180 limits assumed): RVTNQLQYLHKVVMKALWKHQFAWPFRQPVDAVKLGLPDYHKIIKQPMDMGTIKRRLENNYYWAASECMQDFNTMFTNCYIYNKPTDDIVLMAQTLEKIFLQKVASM
Experimental: as §1, §3

BRD1 = target: T9, BRD1 (Homo sapiens, UniProt O95696); assay: BROMOscan BRD1; format: binding
T9 construct: ≥2000-fold selectivity over all 20 non-BET bromodomains tested; purchased DiscoverX
T9 sequence (O95696 562-666 limits assumed): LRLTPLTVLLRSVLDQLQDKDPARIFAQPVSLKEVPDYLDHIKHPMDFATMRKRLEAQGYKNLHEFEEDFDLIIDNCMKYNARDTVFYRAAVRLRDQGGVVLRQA
Experimental: as §1, §2

BRD4 BD2 = target: T10, BRD4 BD2 (Homo sapiens, UniProt O60885); assay: BROMOscan BRD4 BD2; format: binding
T10 construct: BRD4 BD2; purchased DiscoverX
Experimental: as §1, §2

Adenosine A2a = target: T11, Adenosine A2a (Homo sapiens, UniProt P29274); assay: Cross screening: Adenosine A2a Human Agonist; format: biochemical
T11 construct: purchased GSK enhanced cross-screening panel (in-house)
T11 sequence (P29274 whole entry): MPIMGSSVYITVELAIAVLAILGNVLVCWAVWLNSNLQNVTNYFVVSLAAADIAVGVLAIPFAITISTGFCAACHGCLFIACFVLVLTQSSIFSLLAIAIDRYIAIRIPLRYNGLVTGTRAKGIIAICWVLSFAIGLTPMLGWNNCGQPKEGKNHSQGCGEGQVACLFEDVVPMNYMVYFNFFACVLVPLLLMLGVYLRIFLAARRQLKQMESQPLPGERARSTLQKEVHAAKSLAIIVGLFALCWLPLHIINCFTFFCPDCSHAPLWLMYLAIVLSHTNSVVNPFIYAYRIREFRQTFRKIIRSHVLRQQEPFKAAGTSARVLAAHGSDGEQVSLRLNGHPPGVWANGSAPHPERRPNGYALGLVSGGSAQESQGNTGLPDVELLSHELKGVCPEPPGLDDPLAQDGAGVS

BSEP = BSEP (Homo sapiens, UniProt O95342); assay: Cross screening: BSEP inhibitor
Sequence of BSEP (O95342 whole entry): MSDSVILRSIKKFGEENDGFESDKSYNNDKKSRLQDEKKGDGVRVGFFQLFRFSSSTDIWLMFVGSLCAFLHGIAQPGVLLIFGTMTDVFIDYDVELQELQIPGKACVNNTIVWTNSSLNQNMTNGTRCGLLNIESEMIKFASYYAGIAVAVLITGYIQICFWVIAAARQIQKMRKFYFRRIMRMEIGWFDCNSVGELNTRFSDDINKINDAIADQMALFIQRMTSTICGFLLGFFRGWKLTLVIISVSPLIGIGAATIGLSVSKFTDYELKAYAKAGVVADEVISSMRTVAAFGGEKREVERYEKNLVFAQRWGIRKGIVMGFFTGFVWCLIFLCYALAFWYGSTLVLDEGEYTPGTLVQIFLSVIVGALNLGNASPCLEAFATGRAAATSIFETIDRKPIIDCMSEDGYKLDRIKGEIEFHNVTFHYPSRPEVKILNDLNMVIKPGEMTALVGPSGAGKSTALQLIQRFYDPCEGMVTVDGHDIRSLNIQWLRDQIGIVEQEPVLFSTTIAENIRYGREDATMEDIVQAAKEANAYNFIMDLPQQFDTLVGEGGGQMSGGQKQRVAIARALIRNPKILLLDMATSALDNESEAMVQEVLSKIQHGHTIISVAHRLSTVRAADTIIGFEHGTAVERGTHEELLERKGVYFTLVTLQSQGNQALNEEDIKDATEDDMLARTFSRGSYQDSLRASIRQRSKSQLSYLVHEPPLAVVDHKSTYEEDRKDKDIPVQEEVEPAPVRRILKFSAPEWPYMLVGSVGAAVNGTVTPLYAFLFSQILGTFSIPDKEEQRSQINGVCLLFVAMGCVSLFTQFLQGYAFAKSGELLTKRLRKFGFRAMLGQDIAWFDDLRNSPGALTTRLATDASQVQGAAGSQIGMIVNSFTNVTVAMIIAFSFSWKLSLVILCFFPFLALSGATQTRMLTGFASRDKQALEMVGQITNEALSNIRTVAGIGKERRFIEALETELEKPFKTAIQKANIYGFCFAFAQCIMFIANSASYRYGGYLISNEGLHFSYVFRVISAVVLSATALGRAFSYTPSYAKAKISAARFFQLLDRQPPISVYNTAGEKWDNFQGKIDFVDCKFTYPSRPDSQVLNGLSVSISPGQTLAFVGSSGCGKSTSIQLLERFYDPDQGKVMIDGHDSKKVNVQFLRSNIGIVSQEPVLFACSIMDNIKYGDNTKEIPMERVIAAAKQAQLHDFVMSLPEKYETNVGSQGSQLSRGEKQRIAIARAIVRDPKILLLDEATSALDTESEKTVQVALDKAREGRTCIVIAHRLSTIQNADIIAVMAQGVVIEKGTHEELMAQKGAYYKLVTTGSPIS

5-HT1B = target: T12, 5-HT1B (Homo sapiens, UniProt P28222); assay: Cross screening: 5-HT1B Agonist; format: biochemical
T12 construct: purchased GSK enhanced cross-screening panel (in-house)

BRD9 = target: T13, BRD9 (Homo sapiens, UniProt Q9H8M2); assay: BROMOscan BRD9; format: binding
T13 construct: ≥2000-fold selectivity over all 20 non-BET bromodomains tested; purchased DiscoverX
T13 sequence (Q9H8M2 136-240 limits assumed): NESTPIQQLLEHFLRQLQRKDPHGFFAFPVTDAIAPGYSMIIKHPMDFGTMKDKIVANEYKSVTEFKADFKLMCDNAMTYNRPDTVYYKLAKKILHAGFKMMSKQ
Experimental: as §1, §2

M1 [4] = target: T4, M1; assay: Cross screening: M1 antagonist; format: biochemical
BRD2 BD2 [5] = target: T14, BRD2 BD2 (Homo sapiens, UniProt P25440); assay: BROMOscan BRD2 BD2; format: binding
T14 construct: BRD2 BD2; purchased DiscoverX
T14 sequence (P25440 344-453 limits assumed): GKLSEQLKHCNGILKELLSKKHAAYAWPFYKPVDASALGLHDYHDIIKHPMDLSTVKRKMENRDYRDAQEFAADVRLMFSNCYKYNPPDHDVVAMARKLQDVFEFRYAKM
Experimental: as §1, §2

[6] = test system: Phospholipoidosis induction; assay: Cross screening: Phospholipoidosis induction
ATAD2B = target: T15, ATAD2B (Homo sapiens, UniProt Q9ULI0); assay: BROMOscan ATAD2B; format: binding
T15 construct: ≥2000-fold selectivity over all 20 non-BET bromodomains tested; purchased DiscoverX
T15 sequence (Q9ULI0 951-1066 limits assumed): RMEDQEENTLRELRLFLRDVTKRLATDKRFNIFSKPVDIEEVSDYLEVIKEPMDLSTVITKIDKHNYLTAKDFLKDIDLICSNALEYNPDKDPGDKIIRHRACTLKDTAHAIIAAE
Experimental: as §1, §2

BRD4 BD1 [7] = target: T16, BRD4 BD1 (Homo sapiens, UniProt O60885); assay: BROMOscan BRD4 BD1; format: binding
T16 construct: BRD4 BD1; purchased DiscoverX
Experimental: as §1, §2

K1 = assay: Cross screening: K1 Agonist; format: biochemical
[8] = target: T17, Aryl Hydrocarbon Receptor (Homo sapiens, UniProt P35869); assay: Cross screening: Aryl Hydrocarbon Receptor; format: biochemical
T17 construct: purchased GSK enhanced cross-screening panel (in-house)

LCK = target: T18, LCK (Homo sapiens, UniProt P06239); assay: Cross screening: LCK inhibitor; format: biochemical
T18 construct: purchased GSK enhanced cross-screening panel (in-house)

Dopamine 2 (D2) = target: T19, Dopamine 2 (D2) (Homo sapiens, UniProt P14416); assay: Cross screening: Dopamine 2 (D2) Antagonist; format: biochemical
T19 construct: purchased GSK enhanced cross-screening panel (in-house)

BRDT BD1 = BRDT BD1 (Homo sapiens, UniProt Q58F21); assay: BROMOscan BRDT BD1; format: binding
Experimental: as §1, §2

Aurora B = target: T20, Aurora B (Homo sapiens, UniProt Q96GD4); assay: Cross screening: Aurora B inhibitor; format: biochemical
T20 construct: purchased GSK enhanced cross-screening panel (in-house)

Dopamine D2 = target: T21, Dopamine D2 (Homo sapiens, UniProt P14416); assay: Cross screening: Dopamine D2 Agonist; format: biochemical
T21 construct: purchased GSK enhanced cross-screening panel (in-house)

ATAD2A = target: T22, ATAD2A (Homo sapiens, UniProt Q6PL18); assay: BROMOscan ATAD2A; format: binding
T22 construct: ≥2000-fold selectivity over all 20 non-BET bromodomains tested; purchased DiscoverX
T22 sequence (Q6PL18 980-1092 limits assumed): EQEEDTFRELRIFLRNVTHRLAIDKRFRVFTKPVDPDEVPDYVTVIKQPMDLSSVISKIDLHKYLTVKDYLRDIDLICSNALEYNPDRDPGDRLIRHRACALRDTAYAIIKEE
Experimental: as §1, §2

BRD2 BD2 [9] = target: T14, BRD2 BD2; assay: BRD2 BD2 TR-FRET assay; format: binding
Experimental: as §1, §3

D1 = target: T23, D1 (Homo sapiens, UniProt P21728); assay: Cross screening: D1 antagonist; format: biochemical
T23 construct: purchased GSK enhanced cross-screening panel (in-house)

BRD3 BD1 = target: T24, BRD3 BD1 (Homo sapiens, UniProt Q15059); assay: BRD3 BD1 TR-FRET assay; format: binding
T24 construct: BRD3 BD1; purchased DiscoverX
T24 sequence (Q15059 34-140 limits assumed): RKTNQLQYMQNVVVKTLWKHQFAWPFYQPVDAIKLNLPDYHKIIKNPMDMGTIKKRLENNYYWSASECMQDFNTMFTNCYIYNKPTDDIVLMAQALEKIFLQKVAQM
Experimental: as §1, §3

NMDA 1A/2B = target: T25, NMDA 1A/2B (Homo sapiens, UniProt Q05586+Q13224); assay: Cross screening: NMDA 1A/2B antagonist; format: biochemical
T25 construct: purchased GSK enhanced cross-screening panel (in-house)

BRD3 BD2 = BRD3 BD2 (Homo sapiens, UniProt Q15059); assay: BRD3 BD2 TR-FRET assay; format: binding
Sequence of BRD3 BD2 (Q15059 306-415 limits assumed): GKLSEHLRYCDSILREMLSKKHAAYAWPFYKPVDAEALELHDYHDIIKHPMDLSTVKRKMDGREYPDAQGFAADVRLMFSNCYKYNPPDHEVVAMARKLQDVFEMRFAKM
Experimental: as §1, §3

Cc1cc(-c2nc3ccccc3n2C[C@@H]2CCCN(C(=O)C3CCN(C(C)C)CC3)C2)cn(C)c1=O [Compound 31, (S)-5-(1-((1-(1-Isopropylpiperidine-4-carbonyl)piperidin-3-yl)methyl)-1H-benzo [d]imidazole-2-yl)-1,3-dimethylpyridin-2(1H)-one]
Kd (FALZ): > 31.6 µM | Papp [1]: < 0.3 ×10⁻⁶ cm/s | pXC50 Monoamine Oxidase A antagonist (Monoamine Oxidase A): < 4.0 | Kd (BRPF1): 15.8 µM | pXC50 M1 Agonist (M1 [2]): < 4.3 | pXC50 OPRK1 Agonist (OPRK1): < 4.0 | pXC50 NK1 antagonist (NK1): < 4.6 | BRD4 BD1 FRET pIC50 (BRD4 BD1 [3]): 7.8 | fold selectivity (BRD4 BD1 over BRD4 BD2) (BRD4 BD1 [3]): 1000 fold | pXC50 5-HT2A antagonist (5-HT2A): < 4.0 | Kd (GCN5): > 31.6 µM | BRD2 BD1 TR-FRET pIC50 (BRD2 BD1): 8.0 | fold selectivity BRD2 BD1 over BD2 (BRD2 BD1; TR-FRET): 400 fold | Kd (BRD1): > 31.6 µM | BROMOscan pKd BRD4 BD2 (BRD4 BD2): 5.6 | pXC50 Adenosine A2a Human Agonist (Adenosine A2a): < 4.0 | pXC50 BSEP inhibitor (BSEP): < 3.7 | pXC50 5-HT1B Agonist (5-HT1B): < 4.0 | Kd (BRD9): 25.1 µM | pXC50 M1 antagonist (M1 [4]): < 4.3 | BROMOscan pKd BRD2 BD2 (BRD2 BD2 [5]): 5.5 | pXC50 Phospholipoidosis induction [6]: < 4 | Kd (ATAD2B): > 31.6 µM | BROMOscan pKd BRD4 BD1 (BRD4 BD1 [7]): 8.1 | fold selectivity BRD4 BD1 over BD2 (BRD4 BD1 [7]; BROMOscan): 316 fold | pXC50 K1 Agonist (K1): < 4.0 | pKa (pKa of the basic amine): 9.6 | pXC50 Aryl Hydrocarbon Receptor [8]: < 4.0 | pXC50 LCK inhibitor (LCK): < 4.5 | pXC50 Dopamine 2 (D2) Antagonist (Dopamine 2 (D2)): < 4.0 | BROMOscan pKd BRDT BD1 (BRDT BD1): 8.1 | fold selectivity BRDT BD1 over BD2 (BRDT BD1; BROMOscan): 400 fold | pXC50 Aurora B inhibitor (Aurora B): < 4.5 | pXC50 Dopamine D2 Agonist (Dopamine D2): < 4.0 | Kd (ATAD2A): > 31.6 µM | BRD2 BD2 TR-FRET pIC50 (BRD2 BD2 [9]): 5.4 | pXC50 D1 antagonist (D1): < 4.0 | BRD3 BD1 TR-FRET pIC50 (BRD3 BD1): 7.7 | fold selectivity BRD3 BD1 over BD2 (BRD3 BD1; TR-FRET): 400 fold | pXC50 NMDA 1A/2B antagonist (NMDA 1A/2B): < 4.0 | BRD3 BD2 TR-FRET pIC50 (BRD3 BD2): 5.1
